Results from patent US10208000B2, “Eis inhibitors” (priority 2015, dated 2019).

The compounds below were run on K204 Mtb.
Assay type: cell-based, Mycobacterium tuberculosis
`CCCNC1=NS(=O)(=O)C(c2ccc(C)cc2)=C1C` [Compound 139e] was tested, and the “overcoming resistance to KAN in Mtb K204 (in words)” value (“overcoming resistance to KAN” below) was “did not overcome resistance to KAN”.
For `CC1=C(c2ccc(C)c(C)c2)S(=O)(=O)N=C1NCC(=O)NCc1ccc2c(c1)OCO2` [Compound 115i], the “overcoming resistance to KAN” value was “did not overcome resistance to KAN”.
In the case of `CCN1CCN(CCNC2=NS(=O)(=O)C(c3ccc(OC)cc3)=C2C)CC1` [Compound 37d], the “overcoming resistance to KAN” value is reported as “did not overcome resistance to KAN”.
With `CC1=C(c2ccc(F)cc2)S(=O)(=O)N=C1NCc1ccccc1` [Compound 89b] the “overcoming resistance to KAN” value was “did not overcome resistance to KAN”.
With `CC1=C(c2ccc(F)cc2)S(=O)(=O)N=C1NCc1ccco1` [Compound 87b] the “overcoming resistance to KAN” value was “did not overcome resistance to KAN”.
For `CC1=C(c2ccc(C)cc2)S(=O)(=O)N=C1NCCN1CCOCC1` [Compound 35e], the “overcoming resistance to KAN” value was “did not overcome resistance to KAN”.
In the case of `CCCNC1=NS(=O)(=O)C(c2ccc(C)c(C)c2)=C1C` [Compound 139i], the “overcoming resistance to KAN” value is reported as “did not overcome resistance to KAN”.
`CCCNC1=NS(=O)(=O)C(c2ccc(F)cc2)=C1C` [Compound 139b] was tested, and the “overcoming resistance to KAN” value was “did not overcome resistance to KAN”.
